# Source: ChEMBL document CHEMBL4602617, “Discovery and optimization of heteroaryl piperazines as potent and selective PI3Kδ inhibitors” (Bioorg Med Chem Lett, 2020)
# Tests used:
# [1] = target: Protein kinase C eta type (Homo sapiens, UniProt P24723); assay: Inhibition of recombinant full length human His-tagged PRKCH expressed in baculovirus expression system using serine/threonine-7 peptide as substrate incubated for 60 mins in presence of ATP by Z'-LYTE assay
# [2] = target: MAP/microtubule affinity-regulating kinase 4 (Homo sapiens, UniProt Q96L34); assay: Inhibition of recombinant full length human GST-tagged MARK4 expressed in baculovirus expression system using serine/threonine-25 peptide as substrate incubated for 60 mins in presence of ATP by Z'-LYTE assay
# [3] = target: Vasoactive intestinal polypeptide receptor 1 (Homo sapiens) (UniProt P32241); assay: Displacement of [125I]VIP from human HT-29 cells derived VIP1 at 10 uM after 60 mins by radiometric scintillation analysis relative to control; format: cell-based
# [4] = target: Tyrosine-protein kinase BTK (Homo sapiens, UniProt Q06187); assay: Inhibition of recombinant full length human His-tagged BTK expressed in baculovirus expression system using tyrosine-2 peptide as substrate incubated for 60 mins in presence of ATP by Z'-LYTE assay
# [5] = Oral bioavailability in rat at 0.5 mg/kg; format: ADME, organism-based; conditions: in vivo
# [6] = target: Inhibitor of nuclear factor kappa-B kinase subunit alpha (Homo sapiens, UniProt O15111); assay: Inhibition of recombinant full length His-tagged human IKKalpha expressed in baculovirus expression system after 1 hr in presence of ATP by Adapta assay
# [7] = target: Casein kinase I isoform gamma-3 (Homo sapiens, UniProt Q9Y6M4); assay: Inhibition of recombinant human full-length GST-tagged CSNK1G3 expressed in baculovirus expression system using FRET-labeled Ser/Thr 05 peptide as substrate measured after 1 hr in presence of ATP by Z'-lyte assay
# [8] = target: Sodium-dependent dopamine transporter (Homo sapiens) (UniProt Q01959); assay: Displacement of [125I]RTI-55 from full length recombinant human dopamine transporter expressed in CHO-S cells at 10 uM after 3 hrs by radiometric scintillation analysis relative to control; format: cell-based
# [9] = target: Non-receptor tyrosine-protein kinase TYK2 (Homo sapiens, UniProt P29597); assay: Inhibition of recombinant human GST-tagged TYK2 catalytic domain (833 to 1187 residues) expressed in baculovirus expression system using tyrosine-3 peptide as substrate incubated for 60 mins in presence of ATP by Z'-LYTE assay
# [10] = target: Tyrosine-protein kinase Srms (Homo sapiens, UniProt Q9H3Y6); assay: Inhibition of recombinant full length human GST-tagged SRM expressed in baculovirus expression system using tyrosine-1 peptide as substrate incubated for 60 mins in presence of ATP by Z'-LYTE assay
# [11] = target: Melanocortin receptor 4 (Homo sapiens) (UniProt P32245); assay: Displacement of [125I]NDP-alpha-MSH from full length human recombinant MC4 receptor expressed in HEK293 cells at 10 uM measured after 120 mins by radiometric scintillation analysis relative to control; format: cell-based
# [12] = target: Homeodomain-interacting protein kinase 2 (Homo sapiens, UniProt Q9H2X6); assay: Inhibition of recombinant human GST-tagged HIPK2 expressed in baculovirus expression system using serine/threonine-9 peptide as substrate incubated for 60 mins in presence of ATP by Z'-LYTE assay
# [13] = target: Serine/threonine-protein kinase Nek7 (Homo sapiens, UniProt Q8TDX7); assay: Inhibition of NEK7 (unknown origin) by Z'LYTE assay
# [14] = target: Casein kinase I isoform gamma-1 (Homo sapiens, UniProt Q9HCP0); assay: Inhibition of recombinant human full-length GST-tagged CSNK1G1 expressed in baculovirus expression system using FRET-labeled Ser/Thr 05 peptide as substrate measured after 1 hr in presence of ATP by Z'-lyte assay
# [15] = target: Thyrotropin-releasing hormone receptor (Rattus norvegicus) (UniProt Q01717); assay: Inhibition of rat TRH receptor at 10 uM relative to control
# Ephrin type-A receptor 2 = Ephrin type-A receptor 2 (Homo sapiens, UniProt P29317); assay: Inhibition of recombinant human GST-tagged EPHA2 cytoplasmic domain expressed in baculovirus expression system using tyrosine-01 peptide as substrate incubated for 60 mins in presence of ATP by Z'-Lyte assay
# [16] = target: Death-associated protein kinase 1 (Homo sapiens, UniProt P53355); assay: Inhibition of recombinant human GST-tagged DAPK1 catalytic domain (1 to 363 residues) expressed in baculovirus expression system using ZIPtide peptide as substrate incubated for 60 mins in presence of ATP by Adapta assay
# [17] = target: Epidermal growth factor receptor (Homo sapiens, UniProt P00533, L858R); assay: Inhibition of human recombinant GST-tagged EGFR L858R mutant expressed in baculovirus expression system using tyrosine 4 peptide as substrate after 60 mins in presence of ATP FRET based Z'-LYTE assay
# [18] = target: Tyrosine-protein kinase ABL1 (Homo sapiens, UniProt P00519, T315I); assay: Inhibition of recombinant full length human His-tagged ABL1 T315I mutant cytoplasmic domain expressed in baculovirus expression system using tyrosine-2 peptide as substrate incubated for 60 mins in presence of ATP by Z'-LYTE assay
# [19] = target: Proto-oncogene tyrosine-protein kinase receptor Ret (Homo sapiens, UniProt P07949, V804L); assay: Inhibition of recombinant human GST-tagged RET V804L mutant cytoplasmic domain expressed in baculovirus expression system using tyr02 peptide as substrate incubated for 60 mins in presence of ATP by Z'-LYTE assay
# [20] = target: Alpha-1A adrenergic receptor (Rattus norvegicus) (UniProt P43140); assay: Displacement of [3H]prazosin from alpha1a adrenergic receptor in Wistar rat submaxillary gland membranes at 10 uM measured after 60 mins by scintillation counting method relative to control; format: cell membranes; conditions: Membrane
# [21] = target: Prostaglandin E2 receptor EP1 subtype (Homo sapiens) (UniProt P34995); assay: Displacement of [3H]prostaglandin E2 from full length human recombinant EP1 receptor expressed in HEK293 cells at 10 uM measured after 60 mins by radiometric scintillation analysis relative to control; format: cell-based
# [22] = target: Calcium/calmodulin-dependent protein kinase type II subunit beta (Homo sapiens, UniProt Q13554); assay: Inhibition of recombinant full length human His-tagged CAMK2beta expressed in baculovirus expression system using serine/threonine-17 peptide as substrate incubated for 60 mins in presence of ATP by Z'-LYTE assay
# [23] = target: Sodium channel protein type 5 subunit alpha (Homo sapiens, UniProt Q14524); assay: Inhibition of Nav1.5 (unknown origin)
# [24] = target: Retinoic acid receptor RXR-alpha (Homo sapiens) (UniProt P19793); assay: Displacement of [3H]-9-cis-Retinoic acid from human recombinant RXRalpha receptor LBD domain expressed in Escherichia coli at 10 uM measured after 16 hrs by radiometric scintillation analysis relative to control
# [25] = target: Interleukin-1 receptor-associated kinase 1 (Homo sapiens, UniProt P51617); assay: Inhibition of recombinant human GST-tagged IRAK1 catalytic domain (194 to 712 residues) expressed in baculovirus expression system using Histone H3 (1-20) peptide as substrate incubated for 60 mins in presence of ATP by Adapta assay
# Non-receptor tyrosine-protein kinase TYK2, sequence (P29597 whole entry, the tested form may be a part): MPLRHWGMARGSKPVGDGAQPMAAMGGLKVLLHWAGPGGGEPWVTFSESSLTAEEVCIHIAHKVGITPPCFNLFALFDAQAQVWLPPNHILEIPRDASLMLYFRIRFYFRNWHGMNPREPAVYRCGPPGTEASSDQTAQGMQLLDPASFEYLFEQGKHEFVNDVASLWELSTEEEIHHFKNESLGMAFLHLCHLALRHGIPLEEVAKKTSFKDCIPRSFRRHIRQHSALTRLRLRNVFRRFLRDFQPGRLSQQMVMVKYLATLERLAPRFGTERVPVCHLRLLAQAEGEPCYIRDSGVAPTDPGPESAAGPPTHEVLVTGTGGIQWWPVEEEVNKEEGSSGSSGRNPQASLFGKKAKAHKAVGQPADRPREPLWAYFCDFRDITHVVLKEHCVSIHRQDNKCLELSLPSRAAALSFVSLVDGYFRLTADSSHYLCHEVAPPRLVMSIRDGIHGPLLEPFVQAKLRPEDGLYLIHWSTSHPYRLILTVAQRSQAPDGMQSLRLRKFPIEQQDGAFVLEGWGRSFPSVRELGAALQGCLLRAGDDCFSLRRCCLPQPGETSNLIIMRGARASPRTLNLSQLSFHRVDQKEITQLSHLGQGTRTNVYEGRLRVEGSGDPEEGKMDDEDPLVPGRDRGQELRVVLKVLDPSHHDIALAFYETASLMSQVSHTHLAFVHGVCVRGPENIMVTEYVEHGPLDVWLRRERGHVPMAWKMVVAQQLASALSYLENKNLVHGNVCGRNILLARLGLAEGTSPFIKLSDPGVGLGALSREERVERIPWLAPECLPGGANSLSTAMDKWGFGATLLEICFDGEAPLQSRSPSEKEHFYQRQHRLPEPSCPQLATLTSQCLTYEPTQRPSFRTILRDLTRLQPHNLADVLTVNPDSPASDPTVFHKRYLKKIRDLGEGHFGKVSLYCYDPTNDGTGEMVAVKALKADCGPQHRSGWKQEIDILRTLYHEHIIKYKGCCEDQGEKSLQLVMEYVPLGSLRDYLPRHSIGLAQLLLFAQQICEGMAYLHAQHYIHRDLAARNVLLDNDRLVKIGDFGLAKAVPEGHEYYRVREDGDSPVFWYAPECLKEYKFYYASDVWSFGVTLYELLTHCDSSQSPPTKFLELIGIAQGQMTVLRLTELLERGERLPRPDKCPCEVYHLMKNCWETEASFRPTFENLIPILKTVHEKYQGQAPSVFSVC
# Proto-oncogene tyrosine-protein kinase receptor Ret, sequence (P07949 29-1114 V804L limits assumed): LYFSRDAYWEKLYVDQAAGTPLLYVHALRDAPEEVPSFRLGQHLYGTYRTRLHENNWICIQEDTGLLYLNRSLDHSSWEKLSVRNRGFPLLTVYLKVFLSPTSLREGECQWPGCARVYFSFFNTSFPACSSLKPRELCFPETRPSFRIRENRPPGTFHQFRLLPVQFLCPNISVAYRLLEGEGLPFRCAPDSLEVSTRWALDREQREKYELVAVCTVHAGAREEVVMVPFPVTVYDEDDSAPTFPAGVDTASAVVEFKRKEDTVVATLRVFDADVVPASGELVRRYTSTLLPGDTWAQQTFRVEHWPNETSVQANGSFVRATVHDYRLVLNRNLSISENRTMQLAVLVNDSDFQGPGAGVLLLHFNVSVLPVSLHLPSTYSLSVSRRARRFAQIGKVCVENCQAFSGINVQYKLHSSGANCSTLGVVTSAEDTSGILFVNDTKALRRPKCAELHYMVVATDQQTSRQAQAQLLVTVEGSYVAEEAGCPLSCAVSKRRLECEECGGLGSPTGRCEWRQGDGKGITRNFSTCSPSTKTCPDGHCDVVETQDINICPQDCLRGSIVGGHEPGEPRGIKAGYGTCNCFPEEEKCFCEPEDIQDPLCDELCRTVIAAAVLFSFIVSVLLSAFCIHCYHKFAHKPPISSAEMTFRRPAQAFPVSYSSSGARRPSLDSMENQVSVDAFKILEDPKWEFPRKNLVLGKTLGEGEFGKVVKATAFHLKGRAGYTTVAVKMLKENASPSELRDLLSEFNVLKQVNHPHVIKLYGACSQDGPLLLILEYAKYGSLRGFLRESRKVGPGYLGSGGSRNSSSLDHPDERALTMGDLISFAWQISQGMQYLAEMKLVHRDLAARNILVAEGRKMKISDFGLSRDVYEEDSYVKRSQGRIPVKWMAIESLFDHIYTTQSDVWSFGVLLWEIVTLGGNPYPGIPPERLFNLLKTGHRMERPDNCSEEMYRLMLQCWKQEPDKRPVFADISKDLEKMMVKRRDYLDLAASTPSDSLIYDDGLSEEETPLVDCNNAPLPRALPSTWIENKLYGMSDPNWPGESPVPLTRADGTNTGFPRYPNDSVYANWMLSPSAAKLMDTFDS
# Sodium channel protein type 5 subunit alpha, sequence (Q14524 whole entry, the tested form may be a part): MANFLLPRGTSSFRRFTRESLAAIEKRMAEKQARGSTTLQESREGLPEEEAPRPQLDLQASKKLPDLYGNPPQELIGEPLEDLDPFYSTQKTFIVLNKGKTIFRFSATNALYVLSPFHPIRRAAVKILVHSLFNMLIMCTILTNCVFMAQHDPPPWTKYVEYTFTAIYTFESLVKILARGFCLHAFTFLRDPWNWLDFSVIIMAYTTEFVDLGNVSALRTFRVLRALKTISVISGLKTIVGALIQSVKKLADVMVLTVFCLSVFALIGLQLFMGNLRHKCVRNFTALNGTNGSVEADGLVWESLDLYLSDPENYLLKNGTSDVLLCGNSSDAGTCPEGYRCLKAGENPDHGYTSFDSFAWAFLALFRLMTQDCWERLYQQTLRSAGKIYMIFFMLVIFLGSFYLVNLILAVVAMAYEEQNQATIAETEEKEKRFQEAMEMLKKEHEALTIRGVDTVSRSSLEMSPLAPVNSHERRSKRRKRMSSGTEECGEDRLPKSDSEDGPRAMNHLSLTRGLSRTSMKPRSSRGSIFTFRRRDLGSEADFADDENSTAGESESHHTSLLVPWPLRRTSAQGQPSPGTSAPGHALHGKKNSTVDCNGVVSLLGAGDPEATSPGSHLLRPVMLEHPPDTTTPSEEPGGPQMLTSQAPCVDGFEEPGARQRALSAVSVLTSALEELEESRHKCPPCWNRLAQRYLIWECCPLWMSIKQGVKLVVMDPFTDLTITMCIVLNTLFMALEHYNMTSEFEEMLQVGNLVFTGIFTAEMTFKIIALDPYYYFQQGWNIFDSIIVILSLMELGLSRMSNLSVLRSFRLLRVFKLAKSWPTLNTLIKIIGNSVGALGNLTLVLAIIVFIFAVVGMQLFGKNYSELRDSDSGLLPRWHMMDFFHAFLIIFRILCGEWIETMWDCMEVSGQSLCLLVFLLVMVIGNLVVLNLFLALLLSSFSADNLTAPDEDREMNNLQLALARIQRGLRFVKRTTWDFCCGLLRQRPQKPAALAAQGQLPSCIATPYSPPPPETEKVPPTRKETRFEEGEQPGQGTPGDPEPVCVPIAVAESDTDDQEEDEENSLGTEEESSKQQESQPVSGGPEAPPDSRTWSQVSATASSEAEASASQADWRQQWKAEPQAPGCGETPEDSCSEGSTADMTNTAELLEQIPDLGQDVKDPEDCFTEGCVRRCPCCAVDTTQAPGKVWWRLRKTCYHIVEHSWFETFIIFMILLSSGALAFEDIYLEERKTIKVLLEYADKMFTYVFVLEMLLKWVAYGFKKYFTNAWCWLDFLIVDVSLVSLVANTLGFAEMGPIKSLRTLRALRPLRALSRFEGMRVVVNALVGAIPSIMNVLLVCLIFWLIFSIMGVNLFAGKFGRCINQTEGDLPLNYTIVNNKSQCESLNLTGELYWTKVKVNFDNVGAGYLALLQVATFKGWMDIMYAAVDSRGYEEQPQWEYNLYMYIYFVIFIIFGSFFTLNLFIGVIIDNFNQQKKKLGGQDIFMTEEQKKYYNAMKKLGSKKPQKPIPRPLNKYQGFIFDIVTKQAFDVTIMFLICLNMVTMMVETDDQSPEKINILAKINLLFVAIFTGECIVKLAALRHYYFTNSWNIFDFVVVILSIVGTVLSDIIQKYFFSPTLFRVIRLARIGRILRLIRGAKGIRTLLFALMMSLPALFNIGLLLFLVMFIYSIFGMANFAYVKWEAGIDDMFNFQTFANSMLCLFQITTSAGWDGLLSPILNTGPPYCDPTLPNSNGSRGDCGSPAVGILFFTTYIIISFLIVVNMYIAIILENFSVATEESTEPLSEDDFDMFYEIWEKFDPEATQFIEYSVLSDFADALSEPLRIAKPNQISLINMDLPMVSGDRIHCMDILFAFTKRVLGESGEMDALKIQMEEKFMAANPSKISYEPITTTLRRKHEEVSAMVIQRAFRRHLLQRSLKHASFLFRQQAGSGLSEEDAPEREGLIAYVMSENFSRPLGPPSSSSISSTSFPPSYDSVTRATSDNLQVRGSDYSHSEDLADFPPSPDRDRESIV
# Retinoic acid receptor RXR-alpha (Homo sapiens), sequence (P19793 whole entry, the tested form may be a part): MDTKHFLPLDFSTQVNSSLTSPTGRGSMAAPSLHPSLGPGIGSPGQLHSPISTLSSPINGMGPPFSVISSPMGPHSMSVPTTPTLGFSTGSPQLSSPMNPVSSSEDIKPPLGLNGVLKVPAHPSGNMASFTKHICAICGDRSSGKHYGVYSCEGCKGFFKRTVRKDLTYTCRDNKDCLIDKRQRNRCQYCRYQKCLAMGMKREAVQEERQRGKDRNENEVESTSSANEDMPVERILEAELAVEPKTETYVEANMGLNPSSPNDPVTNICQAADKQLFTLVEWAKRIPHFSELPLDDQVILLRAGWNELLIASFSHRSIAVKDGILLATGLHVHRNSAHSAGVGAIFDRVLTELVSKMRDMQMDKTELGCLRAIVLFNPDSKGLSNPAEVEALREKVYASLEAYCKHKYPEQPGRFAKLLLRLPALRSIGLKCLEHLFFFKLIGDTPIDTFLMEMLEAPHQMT
# Serine/threonine-protein kinase Nek7, sequence (Q8TDX7 whole entry, canonical isoform): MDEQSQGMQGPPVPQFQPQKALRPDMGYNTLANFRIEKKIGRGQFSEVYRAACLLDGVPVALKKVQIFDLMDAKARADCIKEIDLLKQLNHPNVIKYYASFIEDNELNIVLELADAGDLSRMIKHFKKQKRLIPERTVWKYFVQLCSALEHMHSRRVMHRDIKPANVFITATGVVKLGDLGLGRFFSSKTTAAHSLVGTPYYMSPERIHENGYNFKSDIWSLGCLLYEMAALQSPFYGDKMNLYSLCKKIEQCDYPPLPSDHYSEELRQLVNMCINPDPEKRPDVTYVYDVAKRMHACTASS
structure (smiles),measurement,setting,value
C[C@@H]1C[C@H]1C(=O)N1CCN(c2cnc(C#N)c(-c3cnn(C)c3)n2)C[C@H]1C,IC50,[1],> 100 µM
same,IC50,[2],> 100 µM
same,inhibition,[3],1%
same,IC50,[4],39.6 µM
same,bioavailability,[5],79%
same,IC50,[6],> 100 µM
same,IC50,[7],> 100 µM
same,inhibition,[8],1%
same,IC50,[9],> 100 µM
same,IC50,[10],> 100 µM
same,inhibition,[11],5%
same,IC50,[12],> 100 µM
same,IC50,[13],> 100 µM
same,IC50,[14],> 100 µM
same,inhibition,[15],0%
same,IC50,Ephrin type-A receptor 2,> 100 µM
same,IC50,[16],> 100 µM
same,IC50,[17],> 100 µM
same,IC50,[18],> 100 µM
same,IC50,[19],> 100 µM
same,inhibition,[20],-7%
same,inhibition,[21],11%
same,IC50,[22],> 100 µM
same,IC50,[23],> 30 µM
same,inhibition,[24],8%
same,IC50,[25],> 100 µM
